The source of these data is article PMC9147171, “Pharmacokinetic/Pharmacodynamic Evaluation of a New Purine-2,6-Dione Derivative in Rodents with Experimental Autoimmune Diseases” (Pharmaceutics, 2022).

Data set [1] deals with PDE7A. The data set can be described thus: PDE inhibition assay, PDE7A (previous investigations). In kind it is biochemical. The settings on record: ratio of IC50 values, vs GRMS-55.
A short description of data set [2]: Pharmacokinetic study in rats, single IP dose, serum. The following applies: female, Lewis, rat. In kind it is in vivo. The protocol:
(§1) Female Lewis rats and female C57BL/6 mice were administered IP with compound 34 dissolved in vehicle at a dose of 20 and 50 mg·kg^−1, respectively. Rats and mice were sacrificed at different time points (n = 3 per time point) following compound administration by decapitation under deep anesthesia. Thereafter, blood samples were harvested and allowed to clot at room temperature for 20 min and serum was separated by centrifugation at 3000 rpm for 10 min (EBA 12 R, Hettich, Germany). The obtained serum samples were stored at −80 °C until analysis.
(§2) Concentrations of compound 34 in rat and murine serum were quantified by an HPLC/UV method. To isolate the investigated compound, 100 μL of serum containing compound 34 or the same volume of blank serum spiked with a standard solution of compound 34, 10 μL of 4-(8-((furan-2-ylmethyl)amino)-1,3-dimethyl-2,6-dioxo-2,3,6,7-tetrahydro-1H-purin-7-yl)-N’-(2-hydroxybenzylidene)butanehydrazide methanol solution was used as an internal standard (IS) at a concentration of 80 μg·mL^−1, and 50 μL of 0.2 M NaOH solution was added. Subsequently, 1 mL of ethyl acetate was added to each sample and extraction was performed for 20 min on a VXR Vibrax shaker (IKA, Germany). Then, the samples were centrifuged (10,000× g, 5 min) on EBA 12 R centrifuge (Hettich, Germany) and the organic layers were collected and transferred to clean tubes. Subsequently, the organic layers were evaporated under a mild stream of nitrogen at 37 °C and the residues were dissolved in 100 μL of mobile phase and subjected to an HPLC analysis. The HPLC system (LaChrom Elite, Merck-Hitachi, Germany) consisted of L-2420 UV-VIS detector, an L-2200 autosampler, and an L-2130 pump. EZChrome Elite v. 3.2 (Merck-Hitachi, Germany) software was used for data acquisition and integration. The analysis was performed at ambient temperature on a LiChrospher 100 RP-18 column (250 × 4 mm) and a LiChroCART (4 × 4 mm) pre-column (Merck, Germany). The mobile phase was composed of acetonitrile mixed with 20 mM KH2PO4 water solution (pH = 4.5) at the ratio of 40:60 (v/v). A flow rate was 1 mL·min^−1 and analytical wavelength was set at 302 nm. The retention times of compound 34 and IS were approximately 6.3 min and 10.6 min. The method was validated according to the FDA Bioanalytical Method Validation Guidance for Industry (2018). The calibration curves constructed by plotting the peak area of the studied compound to the peak area of the IS vs. compound concentrations were linear in the tested concentration range, i.e., from 0.05–10 mg·L^−1 (r > 0.998). The limit of quantification was 0.05 mg·L^−1. […] The assay presented acceptable intra- and inter-assay precision and accuracy (i.e., they were within 15% of the CV and 15% of the nominal concentration, respectively) for all quality control concentrations (0.1, 1, and 5 mg·L^−1). The mean extraction efficiencies of the analyzed compound and the IS were above 80%.
(§3) Pharmacokinetics of compound 34 were investigated in rats and mice following single IP administration. One- and two-compartment models with first-order absorption and linear elimination were tested, but only the one-compartment model appropriately described the concentration-time courses of compound 34 in both rat and murine serum. […] The equations of the model are as follows:(1) dA/dt=−ka×A;A0=D×F, (2) Vd×dCp/dt=ka×A−CLT×Cp; Cp0=0 where A is the amount of the drug at the absorption site, ka is the first-order rate constant of drug absorption, D is the dose, F is the bioavailability, Vd is the volume of distribution, CLT is the total clearance, and Cp is the serum concentration of compound 34.

Data set [3] is described as follows: Pharmacokinetic study in mice, single IP dose, serum. In kind it is in vivo, female C57BL/6 mice. The following applies: female, mouse. The protocol:
as §1, §2, §3

The subject of data set [4] is ConA-induced hepatitis in mice. Description: ConA-induced hepatitis in mice. In kind it is in vivo, BALB/c mice. The following applies: 50 mg·kg^−1 IP 30 min prior to ConA. The protocol:
ConA was dissolved in saline for injection at a concentration of 2 mg·mL^−1. The mice were given IP doses of compound 34 or the equivalent volume of vehicle (control group) and, 30 min later, animals were given an IV injection of ConA (20 mg·kg^−1) via tail vein. An additional group of mice was given vehicle alone IP followed by an IV injection of saline. The mice were sacrificed by exsanguination at 2, 8, and 24 h post-ConA dosing. Blood samples were collected and handled as described above.
Serum aspartate transaminase (AST) and alanine transaminase (ALT) activities were analyzed using the chemistry analyzer BS-800 (Shenzhen Mindray Bio-medical Electronics Co., Ltd., Shenzhen, China). Cytokine levels in mouse serum (TNFα, IL-4, IL-6, and interferon (IFN)γ) were quantified by a Magnetic Luminex® Assay (R&D Systems, Inc, Minneapolis, MN, USA) using a Magpix platform (Luminex Corp., Austin, TX, USA).

Data set [5] concerns PDE7A. The following applies: read-out: IC50 (µM) Against PDE Isoform PDE7A; cited from earlier work.
In data set [6] the test system is LPS-induced endotoxemia in rats. On the set-up: method as in PMID 29407965. The settings on record: single IP dose of 50 mg·kg^−1, at 1.5 h post-LPS dosing; cited from earlier work.

Take `Cn1c(=O)c2c(nc(NCCc3ccccc3)n2CCCC(=O)NN=Cc2ccc(O)c(O)c2O)n(C)c1=O` [Compound 34, 4-(1,3-dimethyl-2,6-dioxo-8-(phenethylamino)-2,3,6,7-tetrahydro-1H-purin-7-yl)-N′-(2,3,4-trihydroxybenzylidene)butanehydrazide]: in data set [1], the “times more potent as a PDE7A inhibitor compared to GRMS-55” value is on record as “about two”. Further, the absorption half-life in data set [2] (serum, 20 mg·kg^−1, IP, suspension in 10% methylcellulose) was determined as 1.2 min. In addition, in data set [2] (single IP dose 20 mg·kg^−1, serum, one-compartment model, read-out: Vd/F Apparent volume of distribution, Final Estimate (CV%)), the Vd/F was 8.7 L/kg. In data set [2] (single IP dose 20 mg·kg^−1, serum, read-out: AUC Area under the concentration-time curve, Final Estimate (CV%) (converted)), the AUC is 752 ng·h/mL. Moreover, the CL/F in data set [2] (single IP dose 20 mg·kg^−1, serum, read-out: CLT/F Apparent clearance, Final Estimate (CV%)) was 440 mL/min/kg. Besides, the Cmax in data set [2] (single IP dose 20 mg·kg^−1, serum, read-out: Cmax Maximum serum concentration, Final Estimate (CV%)) is 1820 ng/mL. The half-life in data set [2] (single IP dose 20 mg·kg^−1, serum, read-out: t0.5 Elimination half-life, Final Estimate (CV%)) is 13.6 min. The absorption half-life in data set [3] (C57BL/6, serum, 50 mg·kg^−1, IP, solution in DMSO:PEG400:sterile water (10:40:50)) was found to be 4.5 min. The Vd/F in data set [3] (C57BL/6, single IP dose 50 mg·kg^−1, serum, one-compartment model, read-out: Vd/F Apparent volume of distribution, Final Estimate (CV%)) was 21.7 L/kg. Besides, the AUC in data set [3] (C57BL/6, single IP dose 50 mg·kg^−1, serum, read-out: AUC Area under the concentration-time curve, Final Estimate (CV%) (converted)) is 818 ng·h/mL. In data set [3] (C57BL/6, single IP dose 50 mg·kg^−1, serum, read-out: CLT/F Apparent clearance, Final Estimate (CV%)), the CL/F is 1020 mL/min/kg. Besides, the Cmax in data set [3] (C57BL/6, single IP dose 50 mg·kg^−1, serum, read-out: Cmax Maximum serum concentration, Final Estimate (CV%)) is 1370 ng/mL. Moreover, the half-life in data set [3] (C57BL/6, single IP dose 50 mg·kg^−1, serum, read-out: t0.5 Elimination half-life, Final Estimate (CV%)) is 14.7 min. In addition, in data set [4] (2 h after ConA injection), the “serum IFNγ level compared to the control group” value is “not significantly different”; the “serum IL-4 concentration, lower compared to the control group” value was 76%; the “serum IL-6 level compared to the control group” value was “not significantly different”; the “serum TNFα concentration, lower compared to the control group” value was found to be 34%. For the same compound, in data set [4] (8 h post-ConA injection), the “ALT serum activity, reduction compared to the control group” value was determined as 73% and the “AST serum activity, reduction compared to the control group” value turned out to be 59%. For the same compound, in data set [4] (24 h post-ConA dosing), the “serum IFNγ concentration, lower compared to the control group” value is 36%; the “serum IL-4 level, treatment vs control group” value is reported as “not different”; the “serum IL-6 level, treatment vs control group” value is reported as “not different”. Further, in data set [5], the 50% inhibitory concentration (IC50) was 3.2 µM. In addition, the “reduction of maximum plasma TNFα concentrations” value in data set [6] is 84%.
